Experimental data from patent publication US20050074867A1, “Preservation of competent cells at ambient temperatures” (priority 2001, published 2005).

System: logarithmic E. coli cells
Test: Preservation survival and stability of logarithmic E. coli cells loaded in vitro before foam drying
Format: cell-based
Conditions: for Preservation Yield (Day 0) % Survival / Preservation Yield (Day 0) Cfu/ml / Stability (Day 7 at RT) % Survival / Stability (Day 7 at RT) Cfu/ml / Stability (Day 14) % Survival / Stability (Day 14) Cfu/ml: loaded with 10% MAG at 37° C. for 30 minutes
Protocol: (3) Loading of fresh electrocompetent E. coli cells before preservation: When applicable, one aliquot of the cell concentrate (3.2 ml of cells in PBS buffer, approx. 2×10^10 cfu/ml) was mixed with 0.8 ml of 50% methyl-glucoside (MAG; 10% final concentration) and incubated at 37° C. for 30 minutes (in vitro loading). A second aliquot (3.2 ml of the cell concentrate) was mixed with 0.8 ml of PBS buffer and incubated on ice for 30 minutes (control, unloaded cells). Similar to loading with MAG, the cells were loaded with 2-deoxyglucose (2-DOG) as described in Example 5 infra.
(4) Preservation of electrocompetent E. coli cells: The cells (resuspended in PBS buffer or on 20% sucrose) were mixed with an equal mass of preservation solution consisting of 45% 2:1 sucrose:raffinose or 45% 4:1 sucrose:MAG on ice. Altematively, the cell pellets were resuspended directly in 22.5% sucrose:raffinose or 22.5% 4:1 sucrose:MAG. The 0.5 g aliquots were distributed in 5 ml glass serum vials or 0.2 g aliquots were distributed in 1.2 ml glass serum vials. To determine the survival in preservation solution before drying, cell-containing mixtures were diluted in PBS buffer containing 20% sucrose and appropriate dilutions were spread plated in duplicate on L-agar plates.
The samples were dried by foam formation. The mixtures were foamed at 0° C. and kept at that temperature until foam formation occurred. After foam was well formed, shelf temperature was increased to 20° C. and drying continued overnight (at least 12 hours).
(5) Assaying the preserved E. coli cells: Dried samples were rehydrated at room temperature. 1 ml of rehydration solution (20% sucrose) was added to the 5 ml vials and 0.2 ml was added to the 1.2 ml vials. For the determination of preservation survival, rehydrated cells were diluted and spread plated in duplicate on L-agar plates. Plates were incubated at 37° C. overnight and colonies were counted the following day.
Bacterial culture was grown until OD550=0.5 was reached (mid-log growth stage). The cell concentrates were prepared as described previously. Control cells, which were not loaded, were incubated on ice for 30 minutes. Cell concentrates were incubated with different amounts (0.15-1%, 5%, 10% and 15%) of glucose and glucose nonmetabolizable analogs at 37° C. for 30 minutes (loading). These mixtures were preserved as described previously.
Accumulation of MAG in the cells prior to drying enhances preservation of logarithmic E. coli cells. Two cell concentrates (harvested at mid-log growth stage) were prepared as described previously. To induce uptake of MAG, 0.5% glucose was added to the growth medium (“induced culture”). Both concentrates were incubated with 10% MAG at 37° C. for 30 minutes (loading). When loading was completed, one concentrate was diluted 100-fold in PBS buffer and incubated at 37° C. for an additional 30 minutes to induce expulsion of the pre-accumulated MAG. Both concentrates were preserved as described previously.
Mid-logarithmic culture was prepared as described previously. 0.5% glucose was added to the growth medium (“induced cells”). The culture was concentrated 10-fold and the concentrates were incubated for 30 minutes with 10% MAG at different temperatures (0, 20, 40, and 60° C.). The mixtures were preserved as described previously.
Effect of incubation time on accumulation of MAG in logarithmic E. coli cells. Cell concentrates were prepared as described previously (0.5% glucose was added to the growth medium) and incubated with 10% MAG at 37° C. for 0, 2.5, 5, 15, 30, and 60 minutes. The mixtures were preserved as described previously.
Effect of growth stage on accumulation of MAG in E. coli cells. E. coli cultures were grown in L-broth with 0.5% glucose as described previously and harvested at OD550=0.1 (early-log), 0.5 (mid-log), 1.0 (late-log) and 2.0 (stationary cells). The cells in each culture were concentrated and split in two aliquots. […]

[1] = 10% MAG at 37° C., Incubated for 0 min
[2] = 10% MAG at 37° C., Incubated for 2.5 min
[3] = 10% MAG at 37° C., Incubated for 5 min
[4] = 10% MAG at 37° C., Incubated for 15 min
[5] = 10% MAG at 37° C., Incubated for 30 min
[6] = 10% MAG at 37° C., Incubated for 60 min
[7] = 10% MAG for 30 minutes, Loaded at 0° C.
[8] = 10% MAG for 30 minutes, Loaded at 20° C.
[9] = 10% MAG for 30 minutes, Loaded at 40° C.
[10] = 10% MAG for 30 minutes, Loaded at 60° C.

For `COC1OC(CO)C(O)C(O)C1O` (centres unmarked) [MAG, a-methyl-glucoside], the “Preservation Yield % Survival” value [1] was 2.6 +/− 0.8%, the “Preservation Yield Cfu/ml” value [1] was 5.3 × 10^7 +/− 1.7 × 10^7 Cfu/ml and the “Stability (7 days at RT) % Survival” value [1] was 1.2 +/− 0.7%. The “Stability (7 days at RT) Cfu/ml” value [1] was 2.4 × 10^7 Cfu/ml, the “Stability (17 days at RT) % Survival” value [1] was 1.8 +/− 0.5% and the “Stability (17 days at RT) Cfu/ml” value [1] was 3.6 × 10^7 Cfu/ml. For the same molecule, the “Preservation Yield % Survival” value [2] was 5.8 +/− 1.1%, the “Preservation Yield Cfu/ml” value [2] was 1.2 × 10^8 +/− 2.1 × 10^7 Cfu/ml and the “Stability (7 days at RT) % Survival” value [2] was 4.9 +/− 0.8%. For the same molecule, the “Stability (7 days at RT) Cfu/ml” value [2] was 9.6 × 10^7 Cfu/ml, the “Stability (17 days at RT) % Survival” value [2] was 2.9 +/− 0.6% and the “Stability (17 days at RT) Cfu/ml” value [2] was 5.9 × 10^7 Cfu/ml. For the same molecule, the “Preservation Yield % Survival” value [3] was 9.9 +/− 0.6%, the “Preservation Yield Cfu/ml” value [3] was 2.0 × 10^8 +/− 1.1 × 10^7 Cfu/ml and the “Stability (7 days at RT) % Survival” value [3] was 6.8 +/− 1.2%. For the same molecule, the “Stability (7 days at RT) Cfu/ml” value [3] was 1.4 × 10^8 Cfu/ml, the “Stability (17 days at RT) % Survival” value [3] was 9.5 +/− 2.7% and the “Stability (17 days at RT) Cfu/ml” value [3] was 1.9 × 10^8 Cfu/ml. For the same molecule, the “Preservation Yield % Survival” value [4] was 16.8 +/− 2.8%, the “Preservation Yield Cfu/ml” value [4] was 3.4 × 10^8 +/− 5.6 × 10^7 Cfu/ml and the “Stability (7 days at RT) % Survival” value [4] was 10.4 +/− 0.4%. For the same molecule, the “Stability (7 days at RT) Cfu/ml” value [4] was 2.1 × 10^8 Cfu/ml, the “Stability (17 days at RT) % Survival” value [4] was 11.8 +/− 2.6% and the “Stability (17 days at RT) Cfu/ml” value [4] was 2.4 × 10^8 Cfu/ml. The “Preservation Yield % Survival” value [5] was 19.9 +/− 2.2%, the “Preservation Yield Cfu/ml” value [5] was 4.0 × 10^8 +/− 4.4 × 10^7 Cfu/ml and the “Stability (7 days at RT) % Survival” value [5] was 13.0 +/− 2.7%. The “Stability (7 days at RT) Cfu/ml” value [5] was 2.6 × 10^8 Cfu/ml, the “Stability (17 days at RT) % Survival” value [5] was 16.8 +/− 2.6% and the “Stability (17 days at RT) Cfu/ml” value [5] was 3.4 × 10^8 Cfu/ml. For the same molecule, the “Preservation Yield % Survival” value [6] was 22.2 +/− 3.0%, the “Preservation Yield Cfu/ml” value [6] was 4.4 × 10^8 +/− 6.1 × 10^7 Cfu/ml and the “Stability (7 days at RT) % Survival” value [6] was 16.3 +/− 1.9%. For the same molecule, the “Stability (7 days at RT) Cfu/ml” value [6] was 3.3 × 10^8 Cfu/ml, the “Stability (17 days at RT) % Survival” value [6] was 19.3 +/− 3.9% and the “Stability (17 days at RT) Cfu/ml” value [6] was 3.9 × 10^8 Cfu/ml. For the same molecule, the “Preservation Yield % Survival” value [7] was 8.2 +/− 1.4%, the “Preservation Yield Cfu/ml” value [7] was 1.6 × 10^8 Cfu/ml and the “Stability (9 Days at RT°) % Survival” value [7] was 5.0 +/− 0.6%. For the same molecule, the “Stability (9 Days at RT°) Cfu/ml” value [7] was 9.4 × 10^7 Cfu/ml, the “Stability (16 Days at RT°) % Survival” value [7] was 5.2 +/− 1.5% and the “Stability (16 Days at RT°) Cfu/ml” value [7] was 9.9 × 10^7 Cfu/ml. For the same molecule, the “Preservation Yield % Survival” value [8] was 14.1 +/− 2.6%, the “Preservation Yield Cfu/ml” value [8] was 2.7 × 10^8 Cfu/ml and the “Stability (9 Days at RT°) % Survival” value [8] was 8.7 +/− 0.6%. For the same molecule, the “Stability (9 Days at RT°) Cfu/ml” value [8] was 1.6 × 10^8 Cfu/ml, the “Stability (16 Days at RT°) % Survival” value [8] was 7.3 +/− 1.7% and the “Stability (16 Days at RT°) Cfu/ml” value [8] was 1.4 × 10^8 Cfu/ml. For the same molecule, the “Preservation Yield % Survival” value [9] was 23.2 +/− 3.5%, the “Preservation Yield Cfu/ml” value [9] was 4.4 × 10^8 Cfu/ml and the “Stability (9 Days at RT°) % Survival” value [9] was 28.1 +/− 3.5%. The “Stability (9 Days at RT°) Cfu/ml” value [9] was 5.3 × 10^8 Cfu/ml, the “Stability (16 Days at RT°) % Survival” value [9] was 21.0 +/− 1.9% and the “Stability (16 Days at RT°) Cfu/ml” value [9] was 3.9 × 10^8 Cfu/ml. The “Preservation Yield % Survival” value [10] was 0%, the “Preservation Yield Cfu/ml” value [10] was 1.4 × 10^4 Cfu/ml and the “Stability (9 Days at RT°) % Survival” value [10] was 0%. For the same molecule, the “Stability (9 Days at RT°) Cfu/ml” value [10] was 1.2 × 10^4 Cfu/ml, the “Stability (16 Days at RT°) % Survival” value [10] was 0% and the “Stability (16 Days at RT°) Cfu/ml” value [10] was 1.3 × 10^4 Cfu/ml. For the same molecule, the “Preservation Yield (Day 0) % Survival” value (OD = 0.1 (early-log)) was 11.3 +/− 0.9%, the “Preservation Yield (Day 0) Cfu/ml” value (OD = 0.1 (early-log)) was 1.6 × 10^7 Cfu/ml and the “Stability (Day 7 at RT) % Survival” value (OD = 0.1 (early-log)) was 8.2 +/− 0.8%. For the same molecule, the “Stability (Day 7 at RT) Cfu/ml” value (OD = 0.1 (early-log)) was 1.2 × 10^7 Cfu/ml, the “Stability (Day 14) % Survival” value (OD = 0.1 (early-log)) was 9.9 +/− 2.2% and the “Stability (Day 14) Cfu/ml” value (OD = 0.1 (early-log)) was 1.5 × 10^7 Cfu/ml. The “Preservation Yield (Day 0) % Survival” value (OD = 0.5 (mid-log)) was 22.2 +/− 2.9%, the “Preservation Yield (Day 0) Cfu/ml” value (OD = 0.5 (mid-log)) was 5.5 × 10^8 Cfu/ml and the “Stability (Day 7 at RT) % Survival” value (OD = 0.5 (mid-log)) was 21.6 +/− 4.7%. For the same molecule, the “Stability (Day 7 at RT) Cfu/ml” value (OD = 0.5 (mid-log)) was 5.3 × 10^8 Cfu/ml, the “Stability (Day 14) % Survival” value (OD = 0.5 (mid-log)) was 17.4 +/− 1.2% and the “Stability (Day 14) Cfu/ml” value (OD = 0.5 (mid-log)) was 4.3 × 10^8 Cfu/ml. For the same molecule, the “Preservation Yield (Day 0) % Survival” value (OD = 1.0 (late-log)) was 26.3 +/− 4.7%, the “Preservation Yield (Day 0) Cfu/ml” value (OD = 1.0 (late-log)) was 2.3 × 10^9 Cfu/ml and the “Stability (Day 7 at RT) % Survival” value (OD = 1.0 (late-log)) was 36.1 +/− 7.5%. The “Stability (Day 7 at RT) Cfu/ml” value (OD = 1.0 (late-log)) was 3.2 × 10^9 Cfu/ml, the “Stability (Day 14) % Survival” value (OD = 1.0 (late-log)) was 33.0 +/− 5.7% and the “Stability (Day 14) Cfu/ml” value (OD = 1.0 (late-log)) was 2.9 × 10^9 Cfu/ml. For the same molecule, the “Preservation Yield (Day 0) % Survival” value (OD = 2.0 (stationary cells)) was 38.8 +/− 5.8%, the “Preservation Yield (Day 0) Cfu/ml” value (OD = 2.0 (stationary cells)) was 2.8 × 10^9 Cfu/ml and the “Stability (Day 7 at RT) % Survival” value (OD = 2.0 (stationary cells)) was 29.9 +/− 3.6%. The “Stability (Day 7 at RT) Cfu/ml” value (OD = 2.0 (stationary cells)) was 2.1 × 10^9 Cfu/ml, the “Stability (Day 14) % Survival” value (OD = 2.0 (stationary cells)) was 35.3 +/− 7.5% and the “Stability (Day 14) Cfu/ml” value (OD = 2.0 (stationary cells)) was 2.5 × 10^9 Cfu/ml. The survived drying (mid-logarithmic cells loaded with 1% at 37° C. for 30 minutes) was 12% and the survived drying (mid-logarithmic cells loaded with 5% at 37° C. for 30 minutes) was 24%.
